Assay results: US9302999B2, “Substituted triazoles as herbicides” (E. I. DU PONT DE NEMOURS AND COMPANY, priority 2012, dated 2016)

Tests used:
Format in all cases: in vivo
[1] = system: barnyardgrass (Echinochloa crus-galli); assay: Test A pre-/postemergence: barnyardgrass
Outline: (§1)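 Injury is scored visually on a scale where 0 means no effect and 100 complete control, comparing treated with untreated plants after approximately ten greenhouse days. Both preemergence and postemergence applications are made at the same time.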

[2] = system: crabgrass, large (large crabgrass, Digitaria sanguinalis); assay: Test A pre-/postemergence: crabgrass, large
Outline: as §1

[3] = system: foxtail, giant (giant foxtail, Setaria faberii); assay: Test A pre-/postemergence: foxtail, giant
Outline: as §1

[4] = system: morningglory (Ipomoea spp.); assay: Test A pre-/postemergence: morningglory
Outline: as §1

[5] = system: pigweed (Amaranthus retroflexus); assay: Test A pre-/postemergence: pigweed
Outline: as §1

[6] = system: velvetleaf (Abutilon theophrasti); assay: Test A pre-/postemergence: velvetleaf
Outline: as §1

[7] = system: wheat (Triticum aestivum); assay: Test A pre-/postemergence: wheat
Outline: as §1

corn (Zea mays) = assay: Test A pre-/postemergence: corn
Outline: as §1

rice (Oryza sativa) = assay: Test C flooded paddy test: rice; details: scale 0 to 100 (0 no effect, 100 complete control)
Outline: (§2)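 Plants were grown to the 2-leaf stage, pots flooded to 3 cm above soil, and test compounds applied directly to the paddy water, with that depth held throughout. After 13 to 15 days in a greenhouse, injury was visually rated against controls on a 0 (no effect) to 100 (complete control) scale.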

[8] = system: sedge, umbrella (small-flower umbrella sedge, Cyperus difformis); assay: Test C flooded paddy test: sedge, umbrella; details: scale 0 to 100 (0 no effect, 100 complete control)
Outline: as §2

[9] = system: ducksalad (Heteranthera limosa); assay: Test C flooded paddy test: ducksalad; details: scale 0 to 100 (0 no effect, 100 complete control)
Outline: as §2

[10] = system: barnyardgrass (Echinochloa crus-galli); assay: Test C flooded paddy test: barnyardgrass; details: scale 0 to 100 (0 no effect, 100 complete control)
Outline: as §2

[11] = Postemergence, 125 g ai/ha, 0 to 100 scale, 0 is no effect, 100 is complete control
[12] = Postemergence, 500 g ai/ha, visual rating on 0 to 100 scale (0 no effect, 100 complete control), approximately ten days
[13] = Preemergence, 125 g ai/ha, 0 to 100 scale (0 no effect, 100 complete control)
[14] = Preemergence, 500 g ai/ha, 0 to 100 scale, 0 is no effect, 100 is complete control
[15] = Flood (flooded paddy test), 62 g ai/ha, visual rating after 13 to 15 days
[16] = Flood (flooded paddy test), 125 g ai/ha, visual rating after 13 to 15 days
[17] = Flood (flooded paddy test), 250 g ai/ha, visual rating after 13 to 15 days
[18] = Preemergence, 125 g ai/ha, 0 to 100 scale where 0 is no effect and 100 is complete control
[19] = Preemergence, 500 g ai/ha, 0 to 100 scale (0 no effect, 100 complete control)
[20] = Postemergence, 1000 g ai/ha, visual rating on 0 to 100 scale (0 no effect, 100 complete control), approximately ten days
[21] = Preemergence, 1000 g ai/ha, 0 to 100 scale, 0 is no effect, 100 is complete control

Structure (SMILES): Cc1nn(-c2cccc(C(F)(F)F)c2)nc1Oc1cc(C(F)(F)F)nn1C [Compound 64]
- Barnyardgrass plant response rating [1, 11]: 0
- Barnyardgrass plant response rating [1, 12]: 0
- Plant response rating, Barnyardgrass [1, 13]: 0
- Plant response rating, Barnyardgrass [1, 14]: 0
- Crabgrass, Large plant response rating [2, 11]: 0
- Crabgrass, Large plant response rating [2, 12]: 0
- Plant response rating, Crabgrass, Large [2, 13]: 0
- Plant response rating, Crabgrass, Large [2, 14]: 0
- Foxtail, Giant plant response rating [3, 11]: 0
- Foxtail, Giant plant response rating [3, 12]: 0
- Plant response rating, Foxtail, Giant [3, 13]: 0
- Plant response rating, Foxtail, Giant [3, 14]: 0
- Morningglory plant response rating [4, 11]: 0
- Morningglory plant response rating [4, 12]: 0
- Plant response rating, Morningglory [4, 13]: 0
- Plant response rating, Morningglory [4, 14]: 0
- Pigweed plant response rating [5, 11]: 0
- Pigweed plant response rating [5, 12]: 0
- Plant response rating, Pigweed [5, 13]: 0
- Plant response rating, Pigweed [5, 14]: 0
- Velvetleaf plant response rating [6, 11]: 0
- Velvetleaf plant response rating [6, 12]: 0
- Plant response rating, Velvetleaf [6, 13]: 0
- Plant response rating, Velvetleaf [6, 14]: 0
- Wheat plant response rating [7, 11]: 0
- Wheat plant response rating [7, 12]: 0
- Plant response rating, Wheat [7, 13]: 0
- Plant response rating, Wheat [7, 14]: 0
- Corn plant response rating (corn (Zea mays); [11]): 0
- Corn plant response rating (corn (Zea mays); [12]): 0
- Plant response rating, Corn (corn (Zea mays); [13]): 0
- Plant response rating, Corn (corn (Zea mays); [14]): 0
- Plant response rating, Rice (rice (Oryza sativa); [15]): 0
- Plant response rating, Rice (rice (Oryza sativa); [16]): 0
- Plant response rating, Rice (rice (Oryza sativa); [17]): 0
- Plant response rating, Rice (rice (Oryza sativa); Flood, 31 g ai/ha): 0
- Plant response rating, Sedge, Umbrella [8, 15]: 0
- Plant response rating, Sedge, Umbrella [8, 16]: 0
- Plant response rating, Sedge, Umbrella [8, 17]: 0
- Plant response rating, Sedge, Umbrella ([8]; Flood, 31 g ai/ha): 0
- Plant response rating, Ducksalad [9, 15]: 0
- Plant response rating, Ducksalad [9, 16]: 0
- Plant response rating, Ducksalad [9, 17]: 0
- Plant response rating, Ducksalad ([9]; Flood, 31 g ai/ha): 0
- Plant response rating, Barnyardgrass [10, 15]: 0
- Plant response rating, Barnyardgrass [10, 16]: 0
- Plant response rating, Barnyardgrass [10, 17]: 0
- Plant response rating, Barnyardgrass ([10]; Flood, 31 g ai/ha): 0

Structure (SMILES): Cc1nn(-c2ccc(C(F)(F)F)cc2)nc1Oc1cccc(OC(F)(F)F)c1 [Compound 119]
- Barnyardgrass plant response rating [1, 11]: 10
- Barnyardgrass plant response rating [1, 12]: 20
- Plant response rating, Barnyardgrass [1, 18]: 0
- Plant response rating, Barnyardgrass [1, 19]: 30
- Crabgrass, Large plant response rating [2, 11]: 40
- Crabgrass, Large plant response rating [2, 12]: 70
- Plant response rating, Crabgrass, Large [2, 18]: 70
- Plant response rating, Crabgrass, Large [2, 19]: 100
- Foxtail, Giant plant response rating [3, 11]: 20
- Foxtail, Giant plant response rating [3, 12]: 60
- Plant response rating, Foxtail, Giant [3, 18]: 50
- Plant response rating, Foxtail, Giant [3, 19]: 100
- Morningglory plant response rating [4, 11]: 20
- Morningglory plant response rating [4, 12]: 70
- Plant response rating, Morningglory [4, 18]: 0
- Plant response rating, Morningglory [4, 19]: 10
- Pigweed plant response rating [5, 11]: 70
- Pigweed plant response rating [5, 12]: 100
- Plant response rating, Pigweed [5, 18]: 60
- Plant response rating, Pigweed [5, 19]: 100
- Velvetleaf plant response rating [6, 11]: 20
- Velvetleaf plant response rating [6, 12]: 40
- Plant response rating, Velvetleaf [6, 18]: 0
- Plant response rating, Velvetleaf [6, 19]: 10
- Wheat plant response rating [7, 11]: 0
- Wheat plant response rating [7, 12]: 10
- Plant response rating, Wheat [7, 18]: 0
- Plant response rating, Wheat [7, 19]: 0
- Corn plant response rating (corn (Zea mays); [11]): 10
- Corn plant response rating (corn (Zea mays); [12]): 30
- Plant response rating, Corn (corn (Zea mays); [18]): 0
- Plant response rating, Corn (corn (Zea mays); [19]): 0
- Plant response rating, Rice (rice (Oryza sativa); [16]): 25
- Plant response rating, Rice (rice (Oryza sativa); [17]): 25
- Plant response rating, Rice (rice (Oryza sativa); Flood, 62 g ai/ha): 15
- Plant response rating, Sedge, Umbrella [8, 16]: 85
- Plant response rating, Sedge, Umbrella [8, 17]: 85
- Plant response rating, Sedge, Umbrella ([8]; Flood, 62 g ai/ha): 75
- Plant response rating, Ducksalad [9, 16]: 80
- Plant response rating, Ducksalad [9, 17]: 80
- Plant response rating, Ducksalad ([9]; Flood, 62 g ai/ha): 50
- Plant response rating, Barnyardgrass [10, 16]: 25
- Plant response rating, Barnyardgrass [10, 17]: 30
- Plant response rating, Barnyardgrass ([10]; Flood, 62 g ai/ha): 20

Structure (SMILES): CCc1nn(-c2ccc(C(F)(F)F)cc2)nc1Cn1nc(C(F)(F)F)cc1C [Compound 131]
- Barnyardgrass plant response rating [1, 20]: 30
- Barnyardgrass plant response rating [1, 21]: 20
- Crabgrass, Large plant response rating [2, 20]: 90
- Crabgrass, Large plant response rating [2, 21]: 90
- Foxtail, Giant plant response rating [3, 20]: 50
- Foxtail, Giant plant response rating [3, 21]: 90
- Morningglory plant response rating [4, 20]: 70
- Morningglory plant response rating [4, 21]: 10
- Pigweed plant response rating [5, 20]: 100
- Pigweed plant response rating [5, 21]: 90
- Velvetleaf plant response rating [6, 20]: 40
- Velvetleaf plant response rating [6, 21]: 0
- Wheat plant response rating [7, 20]: 0
- Wheat plant response rating [7, 21]: 0
- Corn plant response rating (corn (Zea mays); [20]): 30
- Corn plant response rating (corn (Zea mays); [21]): 0
- Plant response rating, Rice (rice (Oryza sativa); [17]): 0
- Plant response rating, Rice (rice (Oryza sativa); Flood, 62 g ai/ha): 0
- Plant response rating, Sedge, Umbrella [8, 17]: 0
- Plant response rating, Sedge, Umbrella ([8]; Flood, 62 g ai/ha): 0
- Plant response rating, Ducksalad [9, 17]: 20
- Plant response rating, Ducksalad ([9]; Flood, 62 g ai/ha): 0
- Plant response rating, Barnyardgrass [10, 17]: 10
- Plant response rating, Barnyardgrass ([10]; Flood, 62 g ai/ha): 0
